# Test results from patent US5856517A, “Substituted pyrroles” (Hoffmann-La Roche Inc., priority 1997, dated 1999).
# What was measured:
# [1] = test system: epithelial breast carcinoma cell line MDAMB-435; assay: Antiproliferative activity, growth of MDAMB-435 cells (MTT); assay type: cell-based; details: Homo sapiens, MDA-MB-435, 120 h, MDAMB435, day 5 post-drug addition, 0.1% DMSO, * = average of two separate experiments
# Method: (§1) The epithelial breast carcinoma cell line, MDAMB-435, and the colon carcinoma cell line, SW480, were purchased from ATCC (American Type Cell Culture Collection) and were grown in culture in medium as recommended by ATCC. For analysis of the effect of various compounds on growth of these cells, the cells were plated at a concentration of 1500 cells/well in a 96 well tissue culture plate ("test plate"). The day after the cells were plated, the compounds to be analyzed were dissolved in 100% DMSO (dimethyl sulfoxide) to yield at 10 mM stock solution. Each compound was diluted in H2 O to 1 mM and was added to triplicate wells in the first row of a 96 well master plate which contains medium to yield a final concentration of 40 μM. The compounds were then serially diluted in medium in the "master plate". The diluted compound(s) were then transferred to test plates containing cells. A row of vehicle "control cells" received DMSO. The final concentration of DMSO in each well was 0.1%. At day 5 post-drug addition, the plates containing MDA-MB435 cells were analyzed as follows. Plates containing SW480 cells were analyzed at day 7 post drug addition as follows.
# (§2) MTT (3-(4-5methylthiazole-2-yl)-2,5-diphenyl tetrazolium bromide; thiazolyl blue) was added to each well to yield a final concentration of 1 mg/ml. The plate was then incubated at 37° C. for 21/2-3 hours. The MTT containing medium was then removed and 50 μl of 100% ethanol was added to each well to dissolve the formazan. The absorbences were then read using an automated plate reader (Bio-tek microplate reader). IC50 's were calculated using the Reed and Munsch equation, see Am. J. Hygiene Vol. 27 pgs. 493-497, 1938.
# [2] = test system: colon carcinoma cell line SW480; assay: Antiproliferative activity, growth of SW480 cells (MTT); assay type: cell-based; details: Homo sapiens, 168 h, day 7 post drug addition, 0.1% DMSO, * = average of two separate experiments
# Method: as §1, §2
SMILES,IC50 [1],IC50 [2]
"Cn1cc(C2=C(c3cn(C)c4cc(C#N)ccc34)C(=O)NC2=O)c2ccccc21 [Ex 1, 1-methyl-3-[4-(1-methyl-1H-indol-3-yl)-2,5-dioxo-2,5-dihydro-1H-pyrrol-3-yl]-1H-indole-6-carbonitrile]",0.03 µM,0.008 µM
"CC(=O)OCc1ccc2c(C3=C(c4cn(C)c5ccccc45)C(=O)NC3=O)cn(C)c2c1 [Ex 3, Acetic acid 1-methyl-3-[4-(1-methyl-1H-indol-3-yl)-2,5-dioxo-2,5-dihydro-1H-pyrrol-3-yl]-1H-indol-6-yl methyl ester]",0.3 µM,0.83 µM
"COC(=O)c1ccc2c(C3=C(c4cn(C)c5ccccc45)C(=O)NC3=O)cn(C)c2c1 [Ex 4a, 1-methyl-3-[4-(1-methyl-1H-indol-3-yl)-2,5-dioxo-2,5-dihydro-1H-pyrrol-3-yl]-1H-indole-6-carboxylic acid methyl ester]",0.01 µM,0.01 µM
"Cn1cc(C2=C(c3cn(C)c4cc(C=O)ccc34)C(=O)NC2=O)c2ccccc21 [Ex 4b, 1-methyl-3-[4-(1-methyl-1H-indol-3-yl)-2,5-dioxo-2,5-dihydro-1H-pyrrol-3-yl]-1H-indole-6-carboxaldehyde]",0.032 µM,0.054 µM
"COCc1ccc2c(C3=C(c4cn(C)c5ccccc45)C(=O)NC3=O)cn(C)c2c1 [Ex 4c, 3-(6-Methoxymethyl-1-methyl-1H-indol-3-yl)-4-(1-methyl-1H-indol-3-yl)-pyrrole-2,5-dione]",0.07 µM,0.11 µM
"Cn1cc(C2=C(c3cn(C)c4cc(CO)ccc34)C(=O)NC2=O)c2ccccc21 [Ex 5, 3-(6-hydroxymethyl-1-methyl-1H-indol-3-yl)-4-(1-methyl-1H-indol-3-yl)pyrrole-2,5-dione]",0.42 µM,0.35 µM
"Cn1cc(C2=C(c3cn(C)c4cc(C(N)=O)ccc34)C(=O)NC2=O)c2ccccc21 [Ex 6, 1-Methyl-3-[4-(1-methyl-1H-indol-3-yl)-2,5-dioxo-2,5-dihydro-1H-pyrrol-3-yl]-1H-indole-6-carboxylic acid amide]",0.7 µM,
